Data reported in patent publication US7935815B2, “Imidazoyl pyridine compounds and salts thereof” (Eisai R&D Management Co., Ltd., priority 2007, dated 2011).

Tested on: Aβ42 production
Test: Quantification of Aβ peptide in culture of neurons from rat fetus brain (Aβ ELISA)
Format: cell-based
Settings: Rattus norvegicus, Neuron, 72 h, rat primary neuronal culture (embryonic day 18 Wistar rat cerebral cortex); cultured three days after addition of compound; Aβx-42 ELISA of the medium; read-out: Aβ42 production reducing effect IC50
Protocol: Quantification of Aβ Peptide in Culture of Neurons from Rat Fetus Brain
(1) Rat Primary Neuronal Culture
Primary neuronal cultures were prepared from the cerebral cortex of embryonic day 18 Wistar rats (Charles River Japan, Yokohama, Japan). Specifically, the embryos were aseptically removed from pregnant rats under ether anesthesia. The brain was isolated from the embryo and immersed in an ice-cold L-15 medium (Invitrogen Corp. Cat #11415-064, Carlsbad, Calif., USA, or SIGMA L1518, for example). The cerebral cortex was collected from the isolated brain under a stereoscopic microscope. The cerebral cortex fragments collected were enzymatically treated in an enzyme solution containing 0.25% trypsin (Invitrogen Corp. Cat #15050-065, Carlsbad, Calif., USA) and 0.01% DNase (Sigma D5025, St. Louis, Mo., USA) at 37° C. for 30 minutes to disperse the cells. Here, the enzymatic reaction was stopped by adding inactivated horse serum to the solution. The enzymatically treated solution was centrifuged at 1,500 rpm for five minutes to remove the supernatant. 5 to 10 ml of a medium was added to the resulting cell mass. Neurobasal medium (Invitrogen Corp. Cat #21103-049, Carlsbad, Calif., USA) supplemented with 2% B27 supplement (Invitrogen Corp. Cat #17504-044, Carlsbad, Calif., USA), 25 μM 2-mercaptoethanol (2-ME, WAKO Cat #139-06861, Osaka, Japan), 0.5 mM L-glutamine (Invitrogen Corp. Cat #25030-081, Carlsbad, Calif., USA), and Antibiotics-Antimycotics (Invitrogen Corp. Cat #15240-062, Carlsbad, Calif., USA) was used as the medium (Neurobasal/B27/2-ME). However, the above Neurobasal medium not supplemented with 2-ME (Neurobasal/B27) was used for the assay. The cells were redispersed by mild pipetting of the cell mass to which the medium was added. The cell dispersion was filtered through a 40-μm nylon mesh (Cell Strainer, Cat #35-2340, Becton Dickinson Labware, Franklin Lakes, N.J., USA) to remove the remaining cell mass, and thus a neuronal cell suspension was obtained. The neuronal cell suspension was diluted with the medium and then plated in a volume of 100 μl/well at an initial cell density of 5×10^5 cells/cm^2 in a 96-well polystyrene culture plate pre-coated with poly-L or D-lysine (Falcon Cat #35-3075, Becton Dickinson Labware, Franklin Lakes, N.J., USA coated with poly-L-lysine using the method shown below, or BIOCOAT™ cell environments Poly-D-lysine cell ware 96-well plate, Cat #35-6461, Becton Dickinson Labware, Franklin Lakes, N.J., USA). Poly-L-lysine coating was carried out as follows. 100 μg/ml of a poly-L-lysine (SIGMA P2636, St. Louis, Mo., USA) solution was aseptically prepared with a 0.15 M borate buffer (pH 8.5). 100 μl/well of the solution was added to the 96-well polystyrene culture plate and incubated at room temperature for one or more hours or at 4° C. overnight or longer. The coated 96-well polystyrene culture plate was washed with sterile water four or more times, and then dried or rinsed with, for example, sterile PBS or medium, and used for cell plating. The plated cells were cultured in the culture plate at 37° C. in 5% CO2-95% air for one day. Then, the total amount of the medium was replaced with a fresh Neurobasal™/B27/2-ME medium, and then the cells were cultured for further three days.
The drug was added to the culture plate on Day 4 of culture as follows. The total amount of the medium was removed from the wells, and 180 μl/well of Neurobasal medium not containing 2-ME and containing 2% B-27 (Neurobasal/B27) was added thereto. A solution of the test compound in dimethyl sulfoxide (hereinafter abbreviated as DMSO) was diluted with Neurobasal/B27 at 10-fold of the final concentration. 20 μl/well of the dilution was added to and sufficiently mixed with the medium. The final DMSO concentration was 1% or less. Only DMSO was added to the control group.
The cells were cultured for three days after addition of the compound, and the total amount of the medium was collected. […]

Structure (SMILES) | IC50 [nM]
CCCCC(O)c1ccc([C@H]2CCCn3nc(/C=C/c4ccc(-n5cnc(C)c5)c(OC)c4)nc32)cc1 (single isomer, unassigned) [Example 19, 1-{4-{2-{(E)-2-[3-methoxy-4-(4-methyl-1H-imidazol-1-yl)phenyl]vinyl}-5,6,7,8-tetrahydro[1,2,4]triazolo[1,5-a]pyridin-8-yl}phenyl}pentan-1-ol] | 43
COc1cc(/C=C/c2nc3n(n2)CCC[C@]3(O)c2ccc(C(C)C)cc2)ccc1-n1cnc(C)c1 (single isomer, unassigned) [Example 55, (−)-8-(4-isopropylphenyl)-2-{(E)-2-[3-methoxy-4-(4-methyl-1H-imidazol-1-yl)phenyl]vinyl}-5,6,7,8-tetrahydro[1,2,4]triazolo[1,5-a]pyridin-8-ol] | 28
COc1cc(/C=C/c2nc3n(n2)CCCC3(O)c2ccccc2F)ccc1-n1cnc(C)c1 (single isomer, unassigned) [Example 59, (−)-8-(2-fluorophenyl)-2-{(E)-2-[3-methoxy-4-(4-methyl-1H-imidazol-1-yl)phenyl]vinyl}-5,6,7,8-tetrahydro-[1,2,4]triazolo[1,5-a]pyridin-8-ol] | 45
COc1cc(/C=C/c2nc3n(n2)CCC[C@]3(C#N)c2cc(F)c(F)c(F)c2)ccc1-n1cnc(C)c1 (single isomer, unassigned) [Example 72, (−)-2-{(E)-2-[3-methoxy-4-(4-methyl-1H-imidazol-1-yl)phenyl]vinyl}-8-(3,4,5-trifluorophenyl)-5,6,7,8-tetrahydro[1,2,4]triazolo[1,5-a]pyridine-8-carbonitrile] | 26
COc1cc(/C=C(\F)c2nc3n(n2)CCC[C@]3(O)c2cc(F)c(F)c(F)c2)ccc1-n1cnc(C)c1 (single isomer, unassigned) [Example 94, (−)-2-{(Z)-1-fluoro-2-[3-methoxy-4-(4-methyl-1H-imidazol-1-yl)phenyl]vinyl}-8-(3,4,5-trifluorophenyl)-5,6,7,8-tetrahydro[1,2,4]triazolo[1,5-a]pyridin-8-ol] | 52
COc1cc(/C=C/c2nc3n(n2)CCC[C@]3(O)c2cc(F)c(F)c(F)c2)c(F)cc1-n1cnc(C)c1 (single isomer, unassigned) [Example 96, (−)-2-{(E)-2-[2-fluoro-5-methoxy-4-(4-methyl-1H-imidazol-1-yl)phenyl]vinyl}-8-(3,4,5-trifluorophenyl)-5,6,7,8-tetrahydro[1,2,4]triazolo[1,5-a]pyridin-8-ol] | 63
COc1cc(/C=C/c2nc3n(n2)CCC[C@H]3C2CCCCC2)ccc1-n1cnc(C)c1 (single isomer, unassigned) [Example 114, (−)-8-cyclohexyl-2-{(E)-2-[3-methoxy-4-(4-methyl-1H-imidazol-1-yl)phenyl]vinyl}-5,6,7,8-tetrahydro[1,2,4]triazolo[1,5-a]pyridine] | 51
COc1cc(/C=C/c2nc3n(n2)CCC[C@@H]3C2CCOCC2)ccc1-n1cnc(C)c1 (single isomer, unassigned) [Example 116, (−)-2-{(E)-2-[3-methoxy-4-(4-methyl-1H-imidazol-1-yl)phenyl]vinyl}-8-(tetrahydropyran-4-yl)-5,6,7,8-tetrahydro[1,2,4]triazolo[1,5-a]pyridine] | 173
COc1cc(/C=C/c2nc3n(n2)CCC[C@@H]3[C@H]2CCCN2Cc2ccccc2)ccc1-n1cnc(C)c1 (single isomer, unassigned) [Example 133, (−)-8-(1-benzylpyrrolidin-2-yl)-2-{(E)-2-[3-methoxy-4-(4-methyl-1H-imidazol-1-yl)phenyl]vinyl}-5,6,7,8-tetrahydro[1,2,4]triazolo[1,5-a]pyridine] | 65
COc1cc(/C=C/c2nc3n(n2)CCC3c2ccccc2)ccc1-n1cnc(C)c1 (single isomer, unassigned) [Example 141, (−)-2-{(E)-2-[3-methoxy-4-(4-methyl-1H-imidazol-1-yl)phenyl]vinyl}-7-phenyl-6,7-dihydro-5H-pyrrolo[1,2-b][1,2,4]triazole] | 36
